ChEMBL document CHEMBL1139292, “Tetrahydroisoquinoline amide substituted phenyl pyrazoles as selective Bcl-2 inhibitors” (Bioorg Med Chem Lett, 2009)
Activity calls are given as the source filed them. The calls are words filed in the database; no cut-off is given here.

What was measured:
[1] = target: T1, Apoptosis regulator Bcl-2 (Homo sapiens, UniProt P10415); test: Inhibition of GST fused Bcl-2 binding to biotinylated 16 mer Bak-BH3 peptide by HTRF-LANCE assay
[2] = target: Bcl-2-like protein 1 (Bcl-xL) (Homo sapiens) (UniProt Q07817); test: Inhibition of GST fused Bcl-xL binding to biotinylated 26 mer Bak-BH3 peptide at 30 uM by HTRF-LANCE assay
[3] = target: T1, Apoptosis regulator Bcl-2; test: Inhibition of GST fused Bcl-2 binding to biotinylated 26 mer Bak-BH3 peptide by HTRF-LANCE assay
[4] = target: Bcl-2-like protein 1 (Bcl-xL) (Homo sapiens) (UniProt Q07817); test: Inhibition of GST fused Bcl-xL binding to biotinylated 16 mer Bak-BH3 peptide at 33 uM by HTRF-LANCE assay
[5] = target: Bcl-2-like protein 1 (Bcl-xL) (Homo sapiens) (UniProt Q07817); test: Inhibition of GST fused Bcl-xL binding to biotinylated 26 mer Bak-BH3 peptide at 10 uM by HTRF-LANCE assay
[6] = target: T1, Apoptosis regulator Bcl-2; conditions: 30 uM
Description: Inhibition of GST fused Bcl-2 binding to biotinylated 16 mer Bak-BH3 peptide at 30 uM by HTRF-LANCE assay

[7] = target: Bcl-2-like protein 1 (Bcl-xL) (Homo sapiens) (UniProt Q07817); test: Inhibition of GST fused Bcl-xL binding to biotinylated 16 mer Bak-BH3 peptide at 30 uM by HTRF-LANCE assay
[8] = target: T1, Apoptosis regulator Bcl-2; test: Inhibition of GST fused Bcl-2 binding to biotinylated 26 mer Bak-BH3 peptide at 10 uM by HTRF-LANCE assay

T1 sequence (P10415 whole entry, the tested form may be a part): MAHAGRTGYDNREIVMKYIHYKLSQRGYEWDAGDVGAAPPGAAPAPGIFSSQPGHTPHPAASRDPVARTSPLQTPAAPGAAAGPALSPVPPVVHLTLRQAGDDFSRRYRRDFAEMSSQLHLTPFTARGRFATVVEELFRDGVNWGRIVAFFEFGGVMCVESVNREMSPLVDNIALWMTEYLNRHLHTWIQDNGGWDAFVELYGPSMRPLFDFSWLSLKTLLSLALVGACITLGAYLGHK
Chain of Bcl-2-like protein 1 (Bcl-xL) (Homo sapiens) (Q07817 whole entry, looked up, the tested form may be a part): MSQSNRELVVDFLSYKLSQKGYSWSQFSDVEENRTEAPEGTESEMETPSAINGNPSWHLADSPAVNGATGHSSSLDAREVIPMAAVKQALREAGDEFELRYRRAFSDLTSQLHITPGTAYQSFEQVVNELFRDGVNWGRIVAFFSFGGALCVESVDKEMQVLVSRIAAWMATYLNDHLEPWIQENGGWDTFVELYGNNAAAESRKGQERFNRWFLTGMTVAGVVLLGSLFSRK

SMILES	IC50 [1] [nM]	IC50 [3] [nM]	other results
Cc1c(Br)c(C(=O)N(c2ccccc2)c2ccccc2)nn1-c1ccccc1C(=O)N1Cc2ccccc2C[C@H]1CO	40	210	inhibition [2]: 9%
Cc1c(Cl)c(C(=O)N(c2ccccc2)c2ccccc2)nn1-c1ccccc1C(=O)N1Cc2ccccc2C[C@H]1CO	50	480	inhibition [2]: 29%
CC(=O)NC[C@@H]1Cc2ccccc2CN1C(=O)c1ccccc1-n1nc(C(=O)N(c2ccccc2)c2ccccc2)cc1C	730	–	–
CCN(CC)C(=O)c1nn(-c2ccccc2C(=O)N2Cc3ccccc3C[C@H]2CO)c(C)c1Br	3670	17300	inhibition [5]: 14%
CCCCN(CCCC)C(=O)c1nn(-c2ccc(N)cc2C(=O)N2Cc3ccccc3C[C@H]2CN)c(C)c1Cl	–	380	–
CNC[C@@H]1Cc2ccccc2CN1C(=O)c1ccccc1-n1nc(C(=O)N(c2ccccc2)c2ccccc2)cc1C	140	–	–
CCCCN(CCCC)C(=O)c1cc(C)n(-c2ccc(NC(=O)COc3ccccc3)cc2C(=O)N2CCc3ccccc3C2)n1	–	510	–
CCOC(=O)[C@@H]1Cc2ccccc2CN1C(=O)c1ccccc1-n1nc(C(=O)N(c2ccccc2)c2ccccc2)cc1C	5610	–	–
COC(=O)C[C@@H]1Cc2ccccc2CN1C(=O)c1ccccc1-n1nc(C(=O)N(c2ccccc2)c2ccccc2)cc1C	280	–	–
Cc1cc(C(=O)N(C)Cc2ccccc2)nn1-c1ccccc1C(=O)N1CCc2ccccc2C1	–	–	Activity [1]: inactive
COC[C@@H]1Cc2ccccc2CN1C(=O)c1ccccc1-n1nc(C(=O)N(c2ccccc2)c2ccccc2)cc1C	160	–	–
Cc1cc(C(=O)N(c2ccccc2)c2ccccc2)nn1-c1ccccc1C(=O)N1Cc2ccccc2C[C@H]1CN	110	–	–
CCCCN(CCCC)C(=O)c1nn(-c2ccccc2C(=O)N2Cc3ccccc3C[C@H]2CO)c(C)c1Cl	100	780	–
Cc1cc(C(=O)N(c2ccccc2)c2ccccc2)nn1-c1ccccc1C(=O)N1Cc2ccccc2C[C@H]1CO	190	–	–
Cc1cc(C(=O)N(c2ccccc2)c2ccccc2)nn1-c1ccccc1C(=O)N1Cc2ccccc2C[C@@H]1C	–	–	inhibition [6]: 27%; inhibition [7]: 4%
CCCCN(CCCC)C(=O)c1cc(C)n(-c2ccc(OCC(=O)O)cc2C(=O)N2CCc3ccccc3C2)n1	10	130	–
Cc1c(Cl)c(C(=O)N(CC(F)(F)F)CC(F)(F)F)nn1-c1ccccc1C(=O)N1Cc2ccccc2C[C@H]1CO	–	–	inhibition [2]: 4%; inhibition [8]: 6%; inhibition [7]: 13%
CCCCN(CCCC)C(=O)c1nn(-c2ccc(NS(=O)(=O)Cc3ccccc3)cc2C(=O)N2CCc3ccccc3C2)c(C)c1Cl	–	–	inhibition [5]: 19%
Cc1cc(C(=O)Nc2ccccc2)nn1-c1ccccc1C(=O)N1CCc2ccccc2C1	50000	–	–
CCCCN(CCCC)C(=O)c1nn(-c2ccc(NC(=O)Cc3ccccc3)cc2C(=O)N2CCc3ccccc3C2)c(C)c1Cl	40	270	–

Further lines, with some results ahead:

IC50 [1] [nM]	IC50 [3] [nM]	SMILES	other results
1050	–	Cc1cc(C(=O)N(c2ccccc2)c2ccccc2)nn1-c1ccccc1C(=O)N1Cc2ccccc2C[C@H]1CNS(C)(=O)=O	inhibition [4]: 40%
30	100	Cc1c(Cl)c(C(=O)N(c2ccccc2)c2ccccc2)nn1-c1ccccc1C(=O)N1Cc2ccccc2C[C@H]1CN	inhibition [2]: 28%
1400	–	Cc1cc(C(=O)N(c2ccccc2)C2CCCCC2)nn1-c1ccccc1C(=O)N1CCc2ccccc2C1	–
110	–	Cc1cc(C(=O)N(c2ccccc2)c2ccccc2)nn1-c1ccccc1C(=O)N1Cc2ccccc2C[C@H]1C	–
20	160	CCCCN(CCCC)C(=O)c1nn(-c2ccccc2C(=O)N2Cc3ccccc3C[C@H]2CN)c(C)c1Cl	–
20	330	CCCCN(CCCC)C(=O)c1cc(C)n(-c2ccc(OCC(=O)c3ccccc3)cc2C(=O)N2CCc3ccccc3C2)n1	–
1500	–	Cc1cc(C(=O)N2CCc3ccccc3C2)nn1-c1ccccc1C(=O)N1CCc2ccccc2C1	–
150	–	Cc1cc(C(=O)N(c2ccccc2)c2ccccc2)nn1-c1ccccc1C(=O)N1Cc2ccccc2C[C@H]1CN(C)C	–
–	600	CCCCN(CCCC)C(=O)c1cc(C)n(-c2ccc(NC(=O)CSc3ccccc3)cc2C(=O)N2CCc3ccccc3C2)n1	–
40	130	CCCCN(CCCC)C(=O)c1nn(-c2ccc(NC(=O)COc3ccccc3)cc2C(=O)N2CCc3ccccc3C2)c(C)c1Cl	–
